Numbers after ± are expanded uncertainties.
Tests used:
[1] = xn = mol fraction of the nth substance listed; settings: 100 kPa, Liquid; for speed of sound: Frequency=3 MHz, Sing-around technique in a fixed-path interferometer; for mass density: Vibrating tube method
[2] = refractive index (Na D-line) (dimensionless); xn = mol fraction of the nth substance listed; settings: 100 kPa, Liquid, Standard Abbe refractometry
[3] = 100 kPa, Liquid; for speed of sound: Frequency=3 MHz, Sing-around technique in a fixed-path interferometer; for mass density: Vibrating tube method
[4] = refractive index (Na D-line) (dimensionless); settings: 101.33 kPa, Liquid, Standard Abbe refractometry

CCC(=O)O [propanoic acid] + CCCCCCC(=O)O
x2 = 0
Settings | mass density, [1] [kg/m3] | refractive index, [2] | speed of sound, [1] [m/s]
293.15 K | 993.9 ± 0.3 | 1.3865 ± 0.0005 | 1166 ± 2
298.15 K | 988.5 ± 0.3 | 1.3848 ± 0.0005 | 1147 ± 2
303.15 K | 983.1 ± 0.3 | 1.383 ± 0.0005 | 1128 ± 2
308.15 K | 977.7 ± 0.3 | 1.3811 ± 0.0005 | 1109 ± 2
313.15 K | 972.3 ± 0.3 | 1.3792 ± 0.0005 | 1090 ± 2

CCOC(=O)OCC [diethyl carbonate] + CCO
298.15 K
Settings | mass density, [1] [kg/m3] | refractive index, [2] | speed of sound, [1] [m/s]
x1 = 0.0415 | 800.3 ± 0.5 | 1.3614 ± 0.0005 | 1145 ± 2
x1 = 0.0943 | 817.7 ± 0.4 | 1.3635 ± 0.0005 | 1147 ± 2
x1 = 0.1932 | 845.9 ± 0.4 | 1.367 ± 0.0005 | 1150 ± 2
x1 = 0.2929 | 869.6 ± 0.4 | 1.3698 ± 0.0005 | 1154 ± 2
x1 = 0.3938 | 890 ± 0.4 | 1.3724 ± 0.0005 | 1156 ± 2
x1 = 0.4965 | 907.8 ± 0.3 | 1.3746 ± 0.0005 | 1159 ± 2
x1 = 0.597 | 923 ± 0.3 | 1.3765 ± 0.0005 | 1162 ± 2
x1 = 0.6924 | 935.7 ± 0.3 | 1.3781 ± 0.0005 | 1166 ± 2
x1 = 0.7911 | 947.6 ± 0.3 | 1.3796 ± 0.0005 | 1169 ± 2
x1 = 0.899 | 959.3 ± 0.3 | 1.3811 ± 0.0005 | 1173 ± 2
x1 = 0.9413 | 963.6 ± 0.3 | 1.3817 ± 0.0005 | 1175 ± 2
x1 = 1 | 969.3 ± 0.3 | 1.3825 ± 0.0005 | 1177 ± 2

CCCC(=O)O [butanoic acid]
Settings | mass density, [3] [kg/m3] | refractive index, [4] | speed of sound, [3] [m/s]
293.15 K | 957.8 ± 0.3 | 1.3983 ± 0.0005 | 1196 ± 2
298.15 K | 952.8 ± 0.3 | 1.3963 ± 0.0005 | 1177 ± 2
303.15 K | 947.9 ± 0.3 | 1.3942 ± 0.0005 | 1158 ± 2
308.15 K | 942.9 ± 0.3 | 1.3922 ± 0.0005 | 1139 ± 2
313.15 K | 938.1 ± 0.3 | 1.3901 ± 0.0005 | 1121 ± 2

CCO [ethanol] + CCOC(=O)OCC
298.15 K, x2 = 0
Settings | mass density [kg/m3] | refractive index | speed of sound [m/s]
[1] | 785.2 ± 0.3 | – | 1142 ± 2
[2] | – | 1.3594 ± 0.0005 | –

CCC(=O)O [propanoic acid]
Settings | mass density, [3] [kg/m3] | refractive index, [4] | speed of sound, [3] [m/s]
293.15 K | 993.9 ± 0.3 | 1.3865 ± 0.0005 | 1166 ± 2
298.15 K | 988.5 ± 0.3 | 1.3848 ± 0.0005 | 1147 ± 2
303.15 K | 983.1 ± 0.3 | 1.383 ± 0.0005 | 1128 ± 2
308.15 K | 977.7 ± 0.3 | 1.3811 ± 0.0005 | 1109 ± 2
313.15 K | 972.3 ± 0.3 | 1.3792 ± 0.0005 | 1090 ± 2

CCOC(=O)OCC [diethyl carbonate]
298.15 K
Settings | mass density [kg/m3] | refractive index | speed of sound [m/s]
[3] | 969.3 ± 0.3 | – | 1177 ± 2
[4] | – | 1.3825 ± 0.0005 | –

CCO [ethanol]
298.15 K
Settings | mass density [kg/m3] | refractive index | speed of sound [m/s]
[3] | 785.2 ± 0.3 | – | 1142 ± 2
[4] | – | 1.3594 ± 0.0005 | –

CCCCCCC(=O)O [heptanoic acid]
Settings | mass density, [3] [kg/m3] | refractive index, [4] | speed of sound, [3] [m/s]
293.15 K | 917.7 ± 0.3 | 1.4234 ± 0.0005 | 1295 ± 2
298.15 K | 913.5 ± 0.3 | 1.4214 ± 0.0005 | 1278 ± 2
303.15 K | 909.3 ± 0.3 | 1.4194 ± 0.0005 | 1260 ± 2
308.15 K | 905.1 ± 0.3 | 1.4173 ± 0.0005 | 1242 ± 2
313.15 K | 900.9 ± 0.3 | 1.4153 ± 0.0005 | 1225 ± 2

CCCC(=O)O [butanoic acid] + CCCCCCC(=O)O
x2 = 0
Settings | mass density, [1] [kg/m3] | refractive index, [2] | speed of sound, [1] [m/s]
293.15 K | 957.8 ± 0.3 | 1.3983 ± 0.0005 | 1196 ± 2
298.15 K | 952.8 ± 0.3 | 1.3963 ± 0.0005 | 1177 ± 2
303.15 K | 947.9 ± 0.3 | 1.3942 ± 0.0005 | 1158 ± 2
308.15 K | 942.9 ± 0.3 | 1.3922 ± 0.0005 | 1139 ± 2
313.15 K | 938.1 ± 0.3 | 1.3901 ± 0.0005 | 1121 ± 2
